Values quoted from earlier work in patent US20070166227A1, “Crowned dithiocarbamate metal complexes and methods for their use” (priority 2004, published 2007).

O=C(O)C1CCCN1C(=S)[S-].O=C(O)C1CCCN1C(=S)[S-].[Cu+2] (centres unmarked) [Cu(ProDTC)2]
binding affinity for NO: log β1 (log β1): 9.74 | binding affinity for NO: log β2 (log β2): 15.44
